These results are taken from article PMC8079033, “Design, synthesis, anticancer evaluation, and molecular modelling studies of novel tolmetin derivatives as potential VEGFR-2 inhibitors and apoptosis inducers” (Journal of Enzyme Inhibition and Medicinal Chemistry, 2021).

Common to all, as to assay type: cell-based, human
Assay [1] has as its system HUVECs. The assay can be described thus: Wound healing assay (CytoSelect 24-well). Conditions: 72 h, 5b 2.4 µM, sunitinib 3.2 µM, control 97.03 ± 5.47. The procedure: Wound healing assay of compound 5b was evaluated using CytoSelect™ 24-Well Wound Healing Assay kit Catalog # CBA-120 according to manufacturer’s instructions. In brief, the 24-well plate wound healing inserts were allowed to warm up at room temperature for 10 minutes, then to each well, 500 µl of human umbilical vascular endothelial cells (HUVECs) suspension (1.0 × 10^6) in media containing 10% fetal bovine serum (FBS) was added. Cells were kept in a cell culture incubator until a monolayer form. Carefully the insert was removed from the well. The media were slowly aspirated and discarded from the wells. The wells were washed with media to remove dead cells and debris. Finally, the media were added to wells to keep cells hydrated, then wells were visualized under a light microscope. […] The percent closure of the cells into the wound field was measured.
One of the hallmarks of angiogenesis is cell migration, which happens in the earlier stages of the angiogenic cascade. A wound-healing assay was performed to investigate in vitro anti-angiogenic property of compound 5b.

Assay [2] deals with HCT-15 cells. Briefly: Cell cycle analysis by flow cytometry (PI). The procedure: After treatment, the cells were washed twice with ice-cold phosphate buffer saline (PBS), collected by centrifugation, and fixed in ice-cold 70% (v/v) ethanol, washed with PBS, resuspended with 0.1 mg/ml RNase, stained with […] propidium iodide (PI), and analysed by flow cytometry using FACS Calibur (Becton Dickinson)[45]. The cell cycle distributions were calculated using Cell- Quest software (Becton Dickinson).
Anticancer agents exert their cytotoxic action by aborting cellular proliferation at certain checkpoints. These checkpoints are distinguishable phases in the cell cycle, whose suppression results in the termination of the cell proliferation. Cell cycle analysis employs flow cytometry to distinguish cells within the different cell cycle phases. […] Moreover, marked augmentation in the proportion of cells in the G0-G1 phase by 1.32-fold, and in the Sub-G1 phase by 18.7-fold, in comparison to the control (DMSO).
On the technique in general: Flow cytometry measures light scatter and fluorescence of single cells or particles in a stream.

Assay [3] relates to HCT-15 cells. The assay can be described thus: Annexin V-FITC/PI apoptosis assay. The procedure:
Apoptosis was determined by staining the cells with Annexin V fluorescein isothiocyanate (FITC) and counterstaining with PI using the Annexin V-FITC/PI apoptosis detection kit (BD Biosciences, San Diego, CA) according to the manufacturer’s instructions. […] The cells then were collected by trypsinization and 0.5 × 10^6 cells were washed twice with PBS and stained with 5 µl Annexin V-FITC and 5 µl PI in 1 × binding buffer for 15 min at room temperature in the dark. Analyses were performed using FACS Calibur flow cytometer (BD Biosciences, San Jose, CA).
This clearly verifies that, cell death resulting from the antiproliferative action of the target tolmetin derivative 5b was attributable to physiological apoptosis.

In assay [4] the test system is caspase-3. Briefly: Caspase-3 (active) ELISA in HCT-15 cells. The procedure:
The level of the apoptotic marker caspase-3 was assessed using Human Caspase-3 (active) ELISA Kit Catalog # KHO1091. The procedure of the used kit was done according to the manufacturer’s instructions. Allow all reagents to reach room temperature before use. Gently mix all liquid reagents prior to use. Add 100 µl of the standard diluent buffer to the zero standard wells. Add 100 µl of standards and controls or diluted samples to the appropriate microtiter wells. Incubate for 2 h at room temperature. […] Incubate for 1 h at room temperature. Add 100 µl anti-rabbit IgG HRP working solution to each well. Prepare the working dilution and incubate for 30 min at room temperature. Add 100 µl of stabilised chromogen to each well. The liquid in the wells will begin to turn blue. Incubate for 30 min at room temperature and in the dark. Add 100 µl of stop solution to each well. The solution in the wells should change from blue to yellow. Read the absorbance of each well at 450 nm. Read the plate within 2 h after adding the stop solution. Use a curve fitting software to generate the standard curve. Read the concentrations for unknown samples and controls from the standard curve.
(§1) The activation of caspases as caspase-3, caspase-8, and caspase-9 is responsible for apoptosis, particularly caspase-3 which is an effector caspase that has an important role in apoptosis. It is activated by one of the initiator caspases which results in the activation of certain enzymes responsible for the fragmentation of DNA[53]. Caspase-8 and -9 are initiator caspases that are responsible for caspase-3 activation.
For orientation: ELISA stands for enzyme-linked immunosorbent assay.

The subject of assay [5] is caspase-8. The assay can be described thus: Caspase-8 ELISA in HCT-15 cells. Here is the method:
(§2) To measure caspase-8 and caspase-9 levels, DRG® Caspase-8 (human) (EIA-4863) ELISA and DRG® Caspase-9 (human) (EIA-4860) ELISA kits were used. Briefly, prepare cell extracts after induction of apoptosis. Resuspend the extracts in lysis buffer, incubate 60 min at room temperature, and centrifuge for 15 min. Wash the microwell strips with 400 µl wash buffer. Add 100 µl of sample diluent in duplicate to all standard wells. Add 100 µl of sample diluent in duplicate to the blank wells. Add 50 µl of sample diluent to the sample wells. Add 50 µl of each sample in duplicate to the sample wells. Add 50 µl of detection antibody to all wells and incubate at room temperature for 2 h. Add 100 µl of diluted anti-rabbit-IgG-HRP to all wells, including the blank wells. Pipette 100 µl of (3,3′,5,5′-Tetramethylbenzidine) TMB substrate solution to all wells and incubate at room temperature for about 15 min. Stop the enzyme reaction by pipetting 100 µl of stop solution into each well. Read absorbance of each microwell on a spectro-photometer using 450 nm. Determine the absorbance of both the samples and the standards.
as §1

The subject of assay [6] is caspase-9. The assay can be described thus: Caspase-9 ELISA in HCT-15 cells. Here is the method: as §2, §1

For the molecule `Cc1ccc(C(=O)c2ccc(CC(=O)NN=Cc3cccc(O)c3O)n2C)cc1` [Compound 5b, N′-(2,3-Dihydroxybenzylidene)-2–(1-methyl-5–(4-methylbenzoyl)-1H-pyrrol-2-yl) acetohydrazide], the Wound closure percentage in assay [1] stood at 51.85 ± 2.92%. Besides, in assay [2] (6.62 µM, vs control (DMSO)), the “augmentation in the proportion of cells in the G0-G1 phase” value was found to be 1.32 fold, the “decline in the cell population at the G2/M phase” value worked out at 65.61% and the “decline in the cell population at the S phase” value is 16.88%. Further, the “%Pre-G1” value in assay [2] (IC50 concentration (6.62 µM), 24 h, control 1.46) came out at 37.29%. Further, the “%G2/M” value in assay [2] (IC50 concentration (6.62 µM), 24 h, control 6.95) came out at 2.39%. In assay [2] (IC50 concentration (6.62 µM), 24 h, control 41.69), the “%G0–G1” value worked out at 54.92%. Besides, the “%S” value in assay [2] (IC50 concentration (6.62 µM), 24 h, control 51.36) is 42.69%. In addition, in assay [3] (IC50 concentration, 24 h, control 0.13), the “Apoptosis Late” value is reported as 22.12%. In assay [3] (IC50 concentration, 24 h, control 0.34), the “Apoptosis Early” value is 2.66%. Further, the “Apoptosis Total” value in assay [3] (IC50 concentration, 24 h, control 0.47) is given as 24.78%. The molecule further had a Necrosis in assay [3] (IC50 concentration, 24 h, control 0.99) of 12.51%. In assay [3] (vs control (DMSO)), the “increase in the total apoptosis percentage” value is given as 52.72 fold. The molecule also had a Caspase-3 in assay [4] (mean ± SD of three experiments, control 0.073 ± 0.01) of 0.570 ± 0.01 ng/mL. Also, the “increase in the level of caspase-3” value in assay [4] (vs control) worked out at 7.808 fold. Moreover, in assay [5] (mean ± SD of three experiments, control 0.377 ± 0.03), the Caspase-8 turned out to be 0.704 ± 0.06 ng/mL. In addition, in assay [5] (vs control), the “increase in the level of caspase-8” value is reported as 1.867 fold. The Caspase-9 in assay [6] (mean ± SD of three experiments, control 3.225 ± 0.44) came to 24.58 ± 0.82 ng/mL. Also, the “increase in the level of caspase-9” value in assay [6] (vs control) is recorded as 7.622 fold.
